Patent US5070089A, “Therapeutic agent for liver disease and piperazine derivatives” (Nippon Chemiphar Co., Ltd., priority 1988, dated 1991)
Like-named read-outs stand apart in the source and are kept apart here.

Assays:
[1] = system: acute liver disease caused by CCl4 (Wister-strain rat); assay: Preventive action on deviation of GOT value and GPT value in vivo using model of acute liver disease caused by CCl4; conditions: rat, 30 mg/kg, 3 hour before oral CCl4
Description: CCl4 in olive oil (concentration: 50%) was orally administered to a Wister-strain rat (body weight: 170-180 g) fasted for 24 hrs., at a dose of 1 ml/kg, to cause acute liver disease. […] For control group, 1.0% methylcellulose (MC) was administered in place of the piperazine derivative. For normal group, a simple olive oil was administered in place of the CCl4 -containing olive oil. For the administration, the piperazine derivative was employed in the form of a dispersion in aqueous MC solution (concentration: 1.0%). At 24 hours after the administration of CCl4, the rat was abdominally sectioned under ether anesthesia. From the abrominal large vein, a blood was collected. The collected blood was subjected to centrifugal separation at 3,000 r.p.m. for 10 min to obtain its plasma. […] The results are set forth in Table 4 in terms of a ratio (%) of suppression (prevention) of GOT or GPT. In Table 4, "***" means 90-100%, "**" means 60-90%, and "*" means 30-60%. The ratio of suppression is calculated according to the following equation. [formula]

[2] = system: lipid peroxidation in rat hepatocyte; assay: Inhibitory action on lipid peroxidation (rat hepatocyte, TBA color formation, absorbance at 530 nm); format: biochemical; conditions: 37° C., 1 hour; for Inhibition ratio (at Final Concentration of Tested Compound) 10^-4 M: final concentration 10^-4 M, 100 µM; for Inhibition ratio (at Final Concentration of Tested Compound) 10^-5 M: final concentration 10^-5 M, 10 µM
Description: A hepatocyte was isolated from rat according to the method of Ui et al (Hiroshi Oka and Tadao Ui: "Isolated Cells--Experimental and Application",page 91). The determination of lipid peroxidation was performed using a died hepatocyte which had been frozen at -85° C. and stored at the temperature and which was melted when the experimental was done. […] The centrifugal tube was shaken at 37° C. for 1 hour for performing a reaction, and then placed into an ice-water bath to terminate the reaction. […] The centrifugal tube was taken out of the ice-water bath and placed in a water bath (kept at 95°-98° C.). The content of the tube was heated in the bath for 1 hour for developing color-formation. After the heating was complete, the content of the tube was cooled and subjected to centrifugal separation. The inhibitory action on lipid peroxidation of the sample was determined by measuring absorbance at 530 nm. The determined inhibitory action is expressed inhibition ratio by percent (%) calculated by the following equation: [formula] In Table 3, the number of the tested compound corresponds to the identical number set forth in Tables 1 and 2 for identifying the compounds of the invention.

[3] = plasma GPT at 24 hours after CCl4, read-out: ratio (%) of suppression (prevention) of GPT
[4] = plasma GOT at 24 hours after CCl4, read-out: ratio (%) of suppression (prevention) of GOT

Row | Structure (SMILES) | inhibition in vivo at 30 mg/kg [1, 3] | inhibition in vivo at 30 mg/kg [1, 4] | Inhibition ratio (at Final Concentration of Tested Compound) 10^-4 M [2] | Inhibition ratio (at Final Concentration of Tested Compound) 10^-5 M [2] | Inhibition ratio (at Final Concentration of Tested Compound) 10^-4 M ([2]; 60 min)
1 | Oc1ccc(CN2CCN(C(=S)SCc3ccccc3)CC2)c(O)c1O [Compound 100, Benzyl 4-(2,3,4-trihydroxybenzyl)-1-piperazinecarbodithioate] | 30 to 60% |  |  |  | 
2 | CSC(=S)N1CCN(Cc2ccccc2Cl)CC1 [Compound 2, Methyl 4-(2-chlorobenzyl)-1-piperazinecarbodithioate] |  | 30 to 60% |  |  | 
3 | Oc1cc(CN2CCN(C(=S)S)CC2)cc(O)c1O [Compound 109, 4-(3,4,5-Trihydroxybenzyl)-1-piperazinecarbodithioic acid] |  |  | 74.9% | 24.2% | 
4 | CSC(=S)N1CCN(Cc2ccc(OC(C)=O)c(OC(C)=O)c2OC(C)=O)CC1 [Compound 34, Methyl 4-(2,3,4-triacetoxybenzyl)-1-piperazinecarbodithioate] | 30 to 60% |  |  |  | 
5 | CSC(=S)N1CCN(CC(=O)c2ccc(O)c(O)c2)CC1 [Compound 72, Methyl 4-{2-(3,4-dihydroxyphenyl)-2-oxo}ethyl-1-piperazinecarbodithioate] |  |  | 74.8% | 58.2% | 
6 | CSC(=S)N1CCN(Cc2ccccc2)CC1 [Compound 1] | 30 to 60% | 30 to 60% |  |  | 
7 | CSC(=S)N1CCN(Cc2ccccc2N(C)C)CC1 [Compound 13, Methyl 4-(2-dimethylaminobenzyl)-1-piperazinecarbodithioate] | 30 to 60% | 30 to 60% | 98.9% | 95.4% | 
8 | CSC(=S)N1CCN(Cc2c(C)c(O)c(C)c(C)c2O)CC1 [Compound 46, Methyl 4-[(2,5-dihydroxy-3,4,6-trimethyl)benzyl]-1-piperazinecarbodithioate] | 90 to 100% | 90 to 100% |  |  | 
9 | COc1ccc(C(=O)N2CCN(C(=S)SC)CC2)c(OC)c1OC [Compound 56, Methyl 4-(2,3,4-trimethoxybenzoyl)-1-piperazinecarbodithioate] | 90 to 100% | 90 to 100% |  |  | 
10 | COc1cc(CN2CCN(C(=S)S)CC2)cc(OC)c1OC [Compound 89, Sodium 4-(3,4-5-trimethoxybenzyl)-1-piperazinecarbodithioate] |  |  |  |  | 90.2%
11 | CSC(=S)N1CCN(Cc2cc(O)c(O)c(O)c2)CC1 [Compound 40, Methyl 4-(3,4,5-trihydroxybenzyl)-1-piperazinecarbodithioate] |  |  | 92.6% |  | 
12 | COc1ccc(O)c(CN2CCN(C(=S)SC)CC2)c1 [Compound 20, Methyl 4-(2-hydroxy-5-methoxybenzyl)-1-piperazinecarbodithioate] | 60 to 90% | 60 to 90% |  |  | 
13 | COc1ccc(CN2CCN(C(=S)SC)CC2)cc1OC [Compound 31, Methyl 4-(3,4-dimethoxybenzyl)-1-piperazinecarbodithioate] | 30 to 60% | 60 to 90% |  |  | 
14 | COc1ccc(CN2CCN(C(=S)SC)CC2)cc1 [Compound 7, Methyl 4-(4-methoxybenzyl)-1-piperazinecarbodithioate] | 30 to 60% | 60 to 90% |  |  | 
15 | CSC(=S)N1CCN(CCc2ccc(O)c(O)c2O)CC1 [Compound 68, Methyl 4-{2-(2,3,4-trihydroxyphenyl)ethyl}-1-piperazinecarbodithioate] | 60 to 90% | 60 to 90% |  |  | 
16 | CSC(=S)N1CCN(CC(O)c2ccc(O)c(O)c2)CC1 (centres unmarked) [Compound 73, Methyl 4-{2-(3,4-dihydroxyphenyl)-2-hydroxy}ethyl-1-piperazinecarbodithioate] | 60 to 90% | 60 to 90% | 88.4% | 44.5% | 
17 | COc1cccc(CN2CCN(C(=S)SC)CC2)c1 [Compound 6, Methyl 4-(3-methoxybenzyl)-1-piperazinecarbodithioate] | 90 to 100% | 90 to 100% |  |  | 

Row | Structure (SMILES) | inhibition in vivo at 30 mg/kg [1, 3] | inhibition in vivo at 30 mg/kg [1, 4] | Inhibition ratio (at Final Concentration of Tested Compound) 10^-4 M [2] | Inhibition ratio (at Final Concentration of Tested Compound) 10^-5 M [2] | Inhibition ratio (at Final Concentration of Tested Compound) 10^-4 M ([2]; 60 min)
18 | CSC(=S)N1CCN(Cc2c(O)c(O)cc3ccc(=O)oc23)CC1 [Compound 106, Methyl 4-(6,7-dihydroxycumarin-8-yl)methyl-1-piperazinecarbodithioate] |  |  | 89.0% | 88.1% | 
19 | CSC(=S)N1CCN(Cc2ccccc2SC)CC1 [Compound 9, Methyl 4-(2-methylthiobenzyl)-1-piperazinecarbodithioate] | 60 to 90% | 60 to 90% |  |  | 
20 | COc1ccc(CN2CCN(C(=S)S)CC2)c(OC)c1OC [Compound 93, 4-(2,3,4-Trimethoxybenzyl)-1-piperazinecarbodithioic acid] | 90 to 100% | 90 to 100% |  |  | 
21 | CSC(=S)N1CCN(Cc2cccc(O)c2O)CC1 [Compound 15, Methyl 4-(2,3-dihydroxybenzyl)-1-piperazinecarbodithioate] | 90 to 100% | 90 to 100% |  |  | 
22 | CSC(=S)N1CCN(Cc2cc(OC(C)=O)c(OC(C)=O)c(OC(C)=O)c2)CC1 [Compound 42, Methyl 4-(3,4,5-triacetoxybenzyl)-1-piperazinecarbodithioate] |  |  | 71.6% | 71.6% | 
23 | CSC(=S)N1CCN(Cc2ccccc2C)CC1 [Compound 3, Methyl 4-(2-methylbenzyl)-1-piperazinecarbodithioate] | 60 to 90% | 60 to 90% |  |  | 
24 | CSC(=S)N1CCN(Cc2ccccc2[N+](=O)[O-])CC1 [Compound 10, Methyl 4-(2-nitrobenzyl)-1-piperazinecarbodithioate] | 30 to 60% | 60 to 90% |  |  | 
25 | COc1cc(CN2CCN(C(=S)S)CC2)cc(OC)c1OC [Compound 108, 4-(3,4,5-Trimethoxybenzyl)-1-piperazinecarbodithioic acid] |  |  |  | 39.2% | 72.6%
26 | COc1ccc(CN2CCN(C(=S)SC)CC2)c(O)c1OC [Compound 35, Methyl 4-(3,4-dimethoxy-2-hydroxybenzyl)-1-piperazinecarbodithioate] | 60 to 90% | 60 to 90% |  |  | 
27 | CSC(=S)N1CCN(Cc2cc(OC(C)=O)ccc2O)CC1 [Compound 21, Methyl 4-(5-acetoxy-2-hydroxybenzyl)-1-piperazinecarbodithioate] | 60 to 90% | 60 to 90% |  |  | 
28 | COc1ccc(C(=O)CN2CCN(C(=S)SC)CC2)c(OC)c1OC [Compound 71, Methyl 4-{2-(2,3,4-trimethoxyphenyl)-2-oxo}ethyl-1-piperazinecarbodithioate] | 30 to 60% | 60 to 90% |  |  | 
29 | COC1=C(OC)C(=O)C(CN2CCN(C(=S)SC)CC2)=C(C)C1=O [Compound 118, Methyl 4-(5,6-dimethoxy-3-methyl-1,4-benzoquinonylmethyl)-1-piperazinecarbodithioate] | 30 to 60% | 60 to 90% |  |  | 
30 | COc1cccc(CN2CCN(C(=S)SC)CC2)c1O [Compound 18, Methyl 4-(2-hydroxy-3-methoxybenzyl)-1-piperazinecarbodithioate] | 60 to 90% | 60 to 90% |  |  | 
31 | COc1ccc(CCN2CCN(C(=S)SC)CC2)c(OC)c1OC [Compound 67, Methyl 4-{2-(2,3,4-trimethoxyphenyl)ethyl}-1-piperazinecarbodithioate] | 30 to 60% | 30 to 60% |  |  | 
32 | COc1cc(O)c(CN2CCN(C(=S)SC)CC2)c(OC)c1 [Compound 37, Methyl 4-[(4,6-dimethoxy-2-hydroxy)benzyl]-1-piperazinecarbodithioate] | 60 to 90% | 60 to 90% |  |  | 
33 | CSC(=S)N1CCN(CC2=CC(=O)C=CC2=O)CC1 [Compound 110, Methyl 4-(1,4-benzoquinonylmethyl)-1-piperazinecarbodithioate] | 90 to 100% | 90 to 100% |  |  | 
